Here are results for one molecule from patent US20080188837A1, “Local Delivery of Drugs or Substances Using Electronic Permeability Increase” (priority 2004, published 2008).

Holding throughout (format): in vitro ADME, Wistar rat
In data set [1] the test system is upper jejunum tissue segments. Put plainly: In vitro permeation of octreotide through rat upper jejunum in a diffusion chamber, with and without LITV pulses (FIG. 24). The note with it: 12 Hz monophasic pulses, 1 millisecond, 3 mA, vs control chamber without electrical stimulation, 1 mg/ml donor, 90-minute period. The source says:
The distance between electrode centers was 10 mm.

For data set [2], the system named is distal ileum tissue samples. Description: In vitro permeation of octreotide via distal ileum tissue in diffusion chamber 500 under LITV pulses (FIG. 36). The note with it: 18 Hz, 3 mA, 1 millisecond, at 7 minutes, vs non-stimulated control. How it is done:
(§1) The samples were analyzed for their content of octreotide by HPLC-UV 205 nm spectroscopy (Hewlett-Packard 1100). […] A 100×3 mm C18 column was used.

In data set [3] the test system is jejunal tissue samples (upper jejunum). Put plainly: In vitro permeation of octreotide via jejunal tissue in diffusion chamber 500 under LITV pulses (FIGS. 27-36). The note with it: for octreotide permeation vs control group: FIG. 29; for permeation efficiency, effect of electrode material: FIG. 34. How it is done:
as §1

Data set [4] has as its system proximal ileum tissue samples. Put plainly: In vitro permeation of octreotide via proximal ileum tissue in diffusion chamber 500 under LITV pulses (FIG. 36). The note with it: 18 Hz, 3 mA, 1 millisecond, at 7 minutes, vs non-stimulated control. How it is done: as §1

As to `C[C@@H](O)[C@@H]1NC(=O)[C@H](CCCCN)NC(=O)[C@@H](Cc2c[nH]c3ccccc23)NC(=O)[C@H](Cc2ccccc2)NC(=O)[C@@H](NC(=O)[C@H](N)Cc2ccccc2)CSSC[C@@H](C(=O)N[C@H](CO)[C@@H](C)O)NC1=O` [octreotide, octreotide acetate], in data set [1], the “octreotide permeation into acceptor cell” value is listed as “substantially greater increase in octreotide permeation”. The “permeation efficiency, effect of pulse application by intestinal region” value in data set [2] is given as “positive but less pronounced effect”; in data set [3] (jejunal tissue, 18 Hz, 3 mA, 1 millisecond, at 7 minutes, vs non-stimulated control, FIG. 36), “greatest effect of pulse application”; in data set [4], “increased permeation efficiency”. Besides, the “permeation efficiency, effect of pulse cycle” value in data set [3] (1 pulse per cycle among 1, 2, 3 pulses per cycle, 18 Hz, 3 mA, 1 millisecond, FIG. 31) is listed as “greatest permeation efficiency”. Further, the “transport enhancement ratio (ER), effect of pulse frequency” value in data set [3] (18 Hz among 5, 12, 18, 24, 30, 60 Hz, 1 millisecond, 3 mA, at 30 minutes, FIG. 28) was “greatest enhancement ratio”. Moreover, in data set [3] (continuous application of pulses vs cessation after 10 minutes (n=1), 18 Hz, 3 mA, 1 millisecond, normalized to control group of FIG. 27, FIG. 35), the “permeation efficiency, effect of cessation of pulse application” value was “substantially greater permeation efficiency”. In addition, the “magnitude of permeation efficiency, effect of electrode distance from jejunal tissue” value in data set [3] (electrode distance 0.5 mm (n=2) vs 3 mm (n=6), 18 Hz, 3 mA, 1 millisecond, at 15 minutes, FIG. 32) is reported as “greater at 0.5 mm than at 3 mm”. Besides, in data set [3] (number of pulses per cycle increased from 1 to 2 to 3 (5-millisecond intervals), 18 Hz, 3 mA, 1 millisecond, FIG. 31), the “permeation efficiency, trend with number of pulses per cycle” value is given as “the permeation efficiency decreased”. The “transport enhancement ratio (ER), effect of pulse duration” value in data set [3] (pulse duration 1 millisecond among 0.2, 0.5, 1, 3 milliseconds, 18 Hz, 3 mA, at 15 minutes, FIG. 30) is “greatest enhancement ratio”. For the same molecule, in data set [3] (pulses 1 millisecond, 18 Hz, 3 mA (n=6) vs non-stimulated control group (n=3), FIG. 27), the “octreotide permeation (permeation efficiency)” value is given as “substantially enhanced octreotide permeation”. The “octreotide permeation vs control group” value is “did not yield a higher octreotide permeation” in data set [3] (pulses at 5 Hz (n=1), 1 millisecond, 3 mA) and “did not yield a higher octreotide permeation” in data set [3] (pulses at 60 Hz (n=1), 1 millisecond, 3 mA). Moreover, the “permeation efficiency, effect of electrode material” value is listed as “did not increase permeation efficiency” in data set [3] (silver chloride (AgCl) electrodes (n=2), 18 Hz, 3 mA, 1 millisecond); “substantially increased permeation efficiency” in data set [3] (stainless steel (SS316L) electrodes (n=6), 18 Hz, 3 mA, 1 millisecond); “did not increase permeation efficiency” in data set [3] (titanium nitride (TN) electrodes (n=3), 18 Hz, 3 mA, 1 millisecond). In addition, in data set [3] (without divider 528, electrodes not insulated from each other (n=1), 18 Hz, 3 mA, 1 millisecond, FIG. 33), the “permeation efficiency, effect of electrode insulation” value is “did not increase permeation efficiency”.
